Results taken from patent US20180193361A1, “GUT ANTI-INFLAMMATORY AGENTS FOR REGULATION OF HIGH BLOOD GLUCOSE LEVELS” (UNIVERSITY HEALTH NETWORK, priority 2015, published 2018).

Experiments:
[1] = tested on: HFD-fed C57BL/6 mice; experiment: Food intake and metabolic cage studies, HFD or HFD 5-ASA; assay type: in vivo; settings: HFD vs HFD 5-ASA, 14 weeks
Method: Mice. Mice were fed either NCD (15 kcal % fat) or HFD (Research Diets, 60 kcal % fat, irradiated) starting at 6 weeks of age. All studies were performed under the approval of Animal User Protocols by the Animal Care Committee at the University Health Network. Mice were maintained in a pathogen-free, temperature-controlled environment on a 12-hour light and dark cycle. All mice used in comparative studies were male, age-matched, and litter mates where possible. […] We confirmed T cell-specific floxing of the PPARγ gene in Lck-Cre+ PPARγfl/fl mice by qPCR with a minimum of at least 90% reduction in PPARγ expression. […] We placed mice in automated metabolic cages (Oxymax Systems, Columbus Instruments) for 48 hours with airflow held constant at 0.5 L/min. (Revelo et al., 2014). […] We measured metabolic activity using indirect calorimetry, recording maximal O2 consumption (VO2), CO2 production (VCO2), and heat production normalized to body weight. Respiratory exchange ratio (RER) was calculated as […]. The data shown are calculated for light and dark measurements as an average over 24 hours by combining light and dark measurements. Ambulatory activity was measured by the breaking of infrared laser beams in the XY plane.

[2] = target: T1, PPARγ (Mus musculus, UniProt P37238); experiment: PPARγ activity assay in small bowel T cell nuclear extracts; assay type: in vivo; settings: purified small bowel T cells, mice fed HFD 5-ASA vs control HFD
T1 construct: from tissue; host or cells: purified small bowel T cells of HFD or HFD 5-ASA-fed mice (nuclear extracts)
Excerpt: We measured PPARγ functional activity in T cell nuclear extracts using a PPARγ transcription factor binding assay following vendor's instructions (ThermoScientific and Cayman Chemical Company). This ELISA-based assay is precoated with dsDNA containing the peroxisome proliferator response element (PPRE). PPARγ in the isolated nuclear extracts bind to PPRE. As per vendor's recommendations, this assay is specific to PPARγ and not to other PPARs (i.e., α or δ).

[3] = tested on: Lck-Cre PPARγfl/fl T cells; experiment: In vitro IFNγ secretion, T cells lacking PPARγ (Lck-Cre PPARγfl/fl); assay type: cell-based, mice; settings: HFD-fed Lck-Cre+ PPARγfl/fl vs WT, 5-ASA in vitro 0.01-1 mM
Method: Mice. Mice were fed either NCD (15 kcal % fat) or HFD (Research Diets, 60 kcal % fat, irradiated) starting at 6 weeks of age. All studies were performed under the approval of Animal User Protocols by the Animal Care Committee at the University Health Network. Mice were maintained in a pathogen-free, temperature-controlled environment on a 12-hour light and dark cycle. All mice used in comparative studies were male, age-matched, and litter mates where possible. […] We confirmed T cell-specific floxing of the PPARγ gene in Lck-Cre+ PPARγfl/fl mice by qPCR with a minimum of at least 90% reduction in PPARγ expression. […] To measure the effect of IFNγ on tight-junction gene expression, we treated MODE-K cells with recombinant mouse IFNγ (Biolegend). We purified bulk dendritic cells and T cells from murine small bowels and spleens using a negative selection DC or T cell isolation kit (Stem Cell Technologies). We plated T cells at 5×10^5 cells/well with plate-bound anti-CD3/CD28 (1 μg/ml, Biolegend). […] We collected supernatants for cytokine measurements after 72 hour incubation. […] We measured serum cytokines by Luminex Multiplex cytokine assay (Millipore, run by the UHN Microarray Center), and quantified IL-10 and IFN-γ in supernatants of anti-CD3/CD28-stimulated splenocytes or bowel immune cells (Winer et al., 2009b) by ELISA (Biolegend).

[4] = tested on: small bowel dendritic cells; experiment: DC-T cell co-culture, 5-ASA pre-treated small bowel dendritic cells with OT-II T cells; assay type: cell-based, mice; settings: DCs pre-treated with 0.1 or 1.0 mM 5-ASA 24 hours, OVA323-339 peptide, 48 hours
Method: To measure the effect of IFNγ on tight-junction gene expression, we treated MODE-K cells with recombinant mouse IFNγ (Biolegend). We purified bulk dendritic cells and T cells from murine small bowels and spleens using a negative selection DC or T cell isolation kit (Stem Cell Technologies). We plated T cells at 5×10^5 cells/well with plate-bound anti-CD3/CD28 (1 μg/ml, Biolegend). […] We collected supernatants for cytokine measurements after 72 hour incubation. […] After 24 hours, we washed the cells with PBS and co-cultured them (1×10^4 cells/well) with OVA323-339 peptide and OT-II splenic or small bowel T cells (5×10^4 cells/well) for 48 hours. Supernatants were collected at 48 hours for cytokine measurement.

[5] = tested on: oral tolerance to OVA antigen; experiment: Oral tolerance studies (OVA); assay type: in vivo, mice; settings: HFD 5-ASA vs HFD
Method: We administered oral ovalbumin (OVA) in the form of drinking water (1 mg/mL) for 7 days to NCD-, HFD- or HFD 5-ASA-fed mice to induce oral tolerance. Average consumption was similar across different groups, at 5 mL per day. Following oral tolerance induction, we immunized animals with or without oral tolerance induction subcutaneously with OVA/CFA (50 μg per side) on both sides of the chest. Axillary draining lymph nodes and VAT were collected 7 days following immunization and subjected to immunological analysis, including OVA323-339/I-A^b tetramer staining and OVA-induced cytokine production and proliferation in vitro. Briefly, we processed axillary lymph nodes into single-cell suspension through a 70 μm filter and cultured the cells (5×10^5/well) in 96-well U-bottom plate with indicated concentrations of OVA (Sigma). We collected culture supernatants at 48 h for determination of IL-2 and IFNγ via ELISA (Biolegend). To measure OVA-specific antibody responses, we performed ELISA by plating diluted serum samples (1:200-1:4000) onto OVA-coated ELISA plates (10 μg/mL), followed by biotinylated anti-mouse isotype-specific secondary antibodies (1:5000 dilution) (Southern Biotech) and HRP-conjugated streptavidin (Biolegend). To measure-OVA-specific Tregs, we stained VAT immune cells with a 1:200 dilution of PE-conjugated OVA323-339/I-A^b or control hCLIP/I-A^b tetramers (NIH Tetramer Core Facility) in FBS-supplemented RPM-I for 4 hours at 37° C., followed by antibody staining for other surface antigens and Foxp3.

T1 sequence (P37238 whole entry): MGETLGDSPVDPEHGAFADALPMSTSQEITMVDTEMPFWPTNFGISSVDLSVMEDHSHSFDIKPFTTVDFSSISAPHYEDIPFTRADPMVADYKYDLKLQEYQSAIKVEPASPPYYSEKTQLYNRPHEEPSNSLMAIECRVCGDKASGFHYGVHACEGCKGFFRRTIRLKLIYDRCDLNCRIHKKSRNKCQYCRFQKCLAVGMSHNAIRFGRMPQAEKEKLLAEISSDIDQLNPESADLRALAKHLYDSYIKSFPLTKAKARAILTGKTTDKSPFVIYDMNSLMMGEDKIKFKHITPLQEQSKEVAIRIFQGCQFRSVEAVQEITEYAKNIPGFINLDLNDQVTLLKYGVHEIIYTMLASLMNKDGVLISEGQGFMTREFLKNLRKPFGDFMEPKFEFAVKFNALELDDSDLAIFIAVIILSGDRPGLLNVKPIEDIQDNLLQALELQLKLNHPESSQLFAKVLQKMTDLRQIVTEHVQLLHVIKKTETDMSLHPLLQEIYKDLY

Question: Which carbon dioxide output [1] does the source give for `Nc1ccc(O)c(C(=O)O)c1` [5-ASA, 5-aminosalicylic acid] here?
Answer: Its carbon dioxide output is “no difference”.

Question: What about the food intake [1] of the same molecule?
Answer: The food intake was “no difference”.

Question: And the oxygen consumption [1]?
Answer: The oxygen consumption was “no difference”.

Question: And the PPARγ functional activity [2]?
Answer: Its PPARγ functional activity is “increased”.

Question: And the “suppressive effects on IFNγ with loss of PPARγ in T cells” value [3]?
Answer: Its value is “abrogated”.

Question: What about the “IFNγ levels from OT-II CD4+ T cells” value [4] of the same molecule?
Answer: Its value is “reduced”.

Question: What about the “OVA-specific IgA” value ([5]; oral OVA then OVA-CFA immunization) of the same molecule?
Answer: Its value is “nearly threefold increase”.

Question: What about the “antigen-specific Tregs to OVA in VAT” value ([5]; OVA/I-Ab tetramers) of the same molecule?
Answer: Its value is “nearly fourfold increase”.

Question: What about the “OVA-specific T cell-derived IFNγ” value ([5]; draining lymph nodes) of the same molecule?
Answer: Its value is “reduction”.

Question: And the “OVA-specific T cell-derived IL-2” value ([5]; draining lymph nodes)?
Answer: Its value is “reduction”.
